{
  "source": "paper PMC6099102",
  "about": "“Effect of the Nature of Donor Atoms on the Thermodynamic, Kinetic and Relaxation Properties of Mn(II) Complexes Formed With Some Trisubstituted 12-Membered Macrocyclic Ligands” (Frontiers in Chemistry, 2018)",
  "origin": "cited, not measured here",
  "key": {"[1]": {"settings": "cited from earlier work; for Σ log K2H: log K1H + log K2H"}, "[2]": {"settings": "cited from earlier work"}, "[3]": {"settings": "cited from earlier work; for pMn: pH = 7.4, cM = cL = 10^−5 M"}, "[4]": {"settings": "cited from earlier work", "remark": "listed apart in the source"}, "[5]": {"settings": "0.1 M KCl, ref Takács et al., [2014]"}, "[6]": {"settings": "Mn(II) complex, I = 0.1 M KCl, ref Takács et al., [2014]"}, "[7]": {"settings": "ref Tircsó and Woods (in preparation)"}, "[8]": {"settings": "I = 0.1 M KCl, ref Forgács et al., [2016]"}, "[9]": {"settings": "I = 0.1 M KCl, ref Forgács et al., [2017]"}, "[10]": {"settings": "Mn(II) complex, I = 0.1 M KCl, ref Forgács et al., [2017]"}, "[11]": {"settings": "Mn(II) complex, ref Garda et al. ([2016])"}},
  "note": "Read-outs that look alike come from different tables or passages of the source.",
  "data": [
    {"compound": "O=C(O)CN1CCN(CC(=O)O)CCN(CC(=O)O)CCN(CC(=O)O)CC1", "note": "[DOTA]", "values": [
      {"measurement": "log K1H", "setting": "[1]; [5]", "result": 11.41},
      {"measurement": "log K2H", "setting": "[1]; [5]", "result": 9.83},
      {"measurement": "log K3H", "setting": "[1]; [5]", "result": 4.38},
      {"measurement": "log K4H", "setting": "[1]; [5]", "result": 4.63},
      {"measurement": "log K5H", "setting": "[1]; [5]", "result": 1.92},
      {"measurement": "log K6H", "setting": "[1]; [5]", "result": 1.58},
      {"measurement": "Σ log K2H", "setting": "[1]; [5]", "result": 21.24},
      {"measurement": "k1 (proton-assisted dissociation)", "setting": "[2]; ref Drahos et al., [2011]", "result": 0.040, "unit": "M⁻¹ s⁻¹"},
      {"measurement": "log KML", "setting": "[3]; [6]", "result": 19.44},
      {"measurement": "log KMLH", "setting": "[3]; [6]", "result": 3.96},
      {"measurement": "pMn", "setting": "[3]; I = 0.1 M KCl, ref Takács et al., [2014]", "result": 9.02}
    ]},
    {"compound": "CC(C(=O)[O-])N1CCN(C(C)C(=O)[O-])CCN(C(C)C(=O)[O-])CCN(C(C)C(=O)[O-])CC1.[Mn+2]", "note": "(centres unmarked) [[Mn(DOTMA)]^2−]", "values": [
      {"measurement": "k1 (proton-assisted dissociation)", "setting": "[2]; 1.0 M KCl, proton-assisted dissociation of the [Mn(H2L)] complex, ref Tircsó and Woods (in preparation)", "result": "3.96e-05", "unit": "M⁻¹ s⁻¹"},
      {"measurement": "t1/2 0.1 M HCl", "setting": "[2]; 1.0 M KCl, ref Tircsó and Woods (in preparation)", "result": 103, "unit": "min"},
      {"measurement": "k0 (spontaneous dissociation)", "setting": "[2]; 1.0 M KCl, spontaneous dissociation of the [Mn(H2L)] complex, ref Tircsó and Woods (in preparation)", "result": 0.000104, "unit": "s⁻¹"},
      {"measurement": "r1p", "setting": "[4]; [7]", "result": 1.76, "unit": "mM⁻¹ s⁻¹"}
    ]},
    {"compound": "O=C([O-])CN1CCN(CC(=O)O)CCN(CC(=O)[O-])CCN(CC(=O)O)CC1.[Mn+2]", "note": "[[Mn(H2DOTA)]]", "values": [
      {"measurement": "r1p", "setting": "[4]; 0.5 T field strength (20 MHz) and 37 °C, ref Wang and Westmoreland ([2009])", "result": 3.20, "unit": "mM⁻¹ s⁻¹"}
    ]},
    {"compound": "CC(C(=O)[O-])N1CCN(C(C)C(=O)O)CCN(C(C)C(=O)[O-])CCN(C(C)C(=O)O)CC1.[Mn+2]", "note": "(centres unmarked) [[Mn(H2DOTMA)]]", "values": [
      {"measurement": "r1p", "setting": "[4]; [7]", "result": 2.98, "unit": "mM⁻¹ s⁻¹"}
    ]},
    {"compound": "O=C([O-])CN1CCNCCNCCN(CC(=O)[O-])CC1.[Mn+2]", "note": "[[Mn(cis-DO2A)]]", "values": [
      {"measurement": "k1 (proton-assisted dissociation)", "setting": "[2]; ref Garda et al. ([2016])", "result": 100, "unit": "M⁻¹ s⁻¹"},
      {"measurement": "k2 (proton-assisted dissociation)", "setting": "[2]; ref Garda et al. ([2016])", "result": "1.6 × 10^6 M^−2s^−1"},
      {"measurement": "t1/2 pH = 7.4 cM = 10^−5 M", "setting": "[2]; ref Garda et al. ([2016])", "result": 58, "unit": "h"},
      {"measurement": "r1p", "setting": "[4]; ref Rolla et al. ([2013])", "result": "2.10^[a] mM^−1s^−1"}
    ]},
    {"compound": "CN(C)C(=O)CN1CCNCCNCCN(CC(=O)N(C)C)CC1.[Mn+2]", "note": "[[Mn(cis-DO2AM^Me2)]^2+]", "values": [
      {"measurement": "k1 (proton-assisted dissociation)", "setting": "[2]; [8]", "result": 8.7, "unit": "M⁻¹ s⁻¹"},
      {"measurement": "t1/2 0.1 M HCl", "setting": "[2]; [8]", "result": 0.0132, "unit": "min"},
      {"measurement": "t1/2 pH = 7.4 cM = 10^−5 M", "setting": "[2]; [8]", "result": 556, "unit": "h"},
      {"measurement": "r1p", "setting": "[4]; ref Forgács et al. ([2016])", "result": "2.50^[h] mM^−1s^−1"}
    ]},
    {"compound": "O=C([O-])CN1CCNCCN(CC(=O)[O-])CCNCC1.[Mn+2]", "note": "[[Mn(trans-DO2A)]]", "values": [
      {"measurement": "k1 (proton-assisted dissociation)", "setting": "[2]; ref Garda et al. ([2016])", "result": 85, "unit": "M⁻¹ s⁻¹"},
      {"measurement": "k2 (proton-assisted dissociation)", "setting": "[2]; ref Garda et al. ([2016])", "result": "3.0 × 10^6 M^−2s^−1"},
      {"measurement": "t1/2 pH = 7.4 cM = 10^−5 M", "setting": "[2]; ref Garda et al. ([2016])", "result": 48, "unit": "h"},
      {"measurement": "r1p", "setting": "[4]; ref Rolla et al. ([2013])", "result": "1.50^[a] mM^−1s^−1"}
    ]},
    {"compound": "O=C(CN1CCNCCNCCN(CC(=O)NCc2ccccc2)CC1)NCc1ccccc1", "note": "[cis-DO2AM^Bz2]", "values": [
      {"measurement": "log K1H", "setting": "[1]; [9]", "result": 9.62},
      {"measurement": "log K2H", "setting": "[1]; [9]", "result": 6.90},
      {"measurement": "Σ log K2H", "setting": "[1]; [9]", "result": 16.52},
      {"measurement": "log KML", "setting": "[3]; [10]", "result": 10.72},
      {"measurement": "log KMLOH", "setting": "[3]; [10]", "result": 9.44},
      {"measurement": "pMn", "setting": "[3]; [9]", "result": 6.69}
    ]},
    {"compound": "CN(C)C(=O)CN1CCNCCNCCN(CC(=O)N(C)C)CC1", "note": "[cis-DO2AM^Me2]", "values": [
      {"measurement": "log K1H", "setting": "[1]; [8]", "result": 10.14},
      {"measurement": "log K2H", "setting": "[1]; [8]", "result": 8.38},
      {"measurement": "Σ log K2H", "setting": "[1]; [8]", "result": 18.52},
      {"measurement": "log KML", "setting": "[3]; Mn(II) complex, I = 0.1 M KCl, ref Forgács et al., [2016]", "result": 12.64},
      {"measurement": "pMn", "setting": "[3]; [8]", "result": 6.98}
    ]},
    {"compound": "O=C(O)CN1CCNCCNCCN(CC(=O)O)CC1", "note": "[cis-DO2A]", "values": [
      {"measurement": "Σ log K2H", "setting": "[1]; ref Garda et al. ([2016])", "result": 20.95},
      {"measurement": "log K1H", "setting": "[1]; ref Garda et al. ([2016])", "result": 11.44},
      {"measurement": "log K2H", "setting": "[1]; ref Garda et al. ([2016])", "result": 9.51},
      {"measurement": "log K3H", "setting": "[1]; ref Garda et al. ([2016])", "result": 4.14},
      {"measurement": "log K4H", "setting": "[1]; ref Garda et al. ([2016])", "result": 1.55},
      {"measurement": "log KML", "setting": "[3]; [11]", "result": 15.68},
      {"measurement": "log KMLH", "setting": "[3]; [11]", "result": 4.15},
      {"measurement": "pMn", "setting": "[3]; ref Garda et al. ([2016])", "result": 7.27}
    ]},
    {"compound": "O=C(O)CN1CCNCCN(CC(=O)O)CCNCC1", "note": "[trans-DO2A]", "values": [
      {"measurement": "Σ log K2H", "setting": "[1]; ref Garda et al. ([2016])", "result": 21.44},
      {"measurement": "log K1H", "setting": "[1]; ref Garda et al. ([2016])", "result": 11.69},
      {"measurement": "log K2H", "setting": "[1]; ref Garda et al. ([2016])", "result": 9.75},
      {"measurement": "log K3H", "setting": "[1]; ref Garda et al. ([2016])", "result": 3.97},
      {"measurement": "log K4H", "setting": "[1]; ref Garda et al. ([2016])", "result": 2.68},
      {"measurement": "log KML", "setting": "[3]; [11]", "result": 14.64},
      {"measurement": "log KMLH", "setting": "[3]; [11]", "result": 4.40},
      {"measurement": "pMn", "setting": "[3]; ref Garda et al. ([2016])", "result": 6.52}
    ]}
  ]
}
